# Assay results: patent US20230390277A1, “METHODS TO SENSITIZE TUMORS TO TREATMENT BY IMMUNOTHERAPY” (Ohio State Innovation Foundation, priority 2020, published 2023)
# What was measured:
# [1] = test system: spontaneous canine soft tissue sarcoma; assay: BOLD MRI of spontaneous canine soft tissue sarcoma; type: in vivo, dog; conditions: for fraction of tumors responding well (T2* increase): one hour
# Method: BOLD MRI analysis of canine tumors. Canine patients with primary sarcomas were enrolled in a trial to evaluate the effects of papaverine delivered at a dose of 1 or 2 mg/kg using ire blood oxygen level dependent (BOLD) magnetic resonance imaging (MRI). Dogs were anesthetized with isoflurane in medical air to effect on the bed of a Philips ingenia 3.071 UR scanner. They were first imaged with T1- (TR: 700ms, TE: 9ms, resolution 0.3×0.3×3 mm) and T2-weighted (TR: 3000 ms, TE: 80ms, resolution 0.4×0.4×3 mm) scans in transaxial, coronal, and sagittal orientations to acquire data covering the extent of the tumor. BOLD data were acquired as a series of 60 repeats of a volumetric echo-planar T2-weighted sequence (TR: 3000 ms, TE: 35 ms, resolution 1.6×1.6×4 mm) collected over a period of 3 minutes. In addition, a single slice fast field echo (FIFE) sequence (resolution 0.5×0.5×4 mm) was used to acquire 8 images at echo times from 5 to 75 ms, allowing fitting of pixel T2* values. After these acquisitions, papaverine was delivered intravenously and the BOLD and FEE data were acquired again one hour post-administration. All data were analyzed using the RT Image software package. BOLD data were registered using an affine transformation and percent signal change was calculated on a per-pixel basis: T2* values were fit on a pixel-by-pixel basis using a Levenberg-Marquardt least squares fit to a monoexponential decay function.
# PDE10A = molecular target: T1, PDE10A (Homo sapiens, UniProt Q9Y233); assay: PDE10A purified enzyme activity assay (BPS Bioscience); type: biochemical; conditions: dose response analysis
# T1 construct: purchased BPS Bioscience
# Text: We therefore defined the structure activity relationship (SAR) of PPV relative to two assays: inhibition of cellular OCR by Seahorse XE assay, and inhibition of PDE10A by purified enzyme activity (PDE10A activity assay, BPS Bioscience). […] Because the top portion of PPV was a planar structure like that of rotenone, we decided to focus our attention on the lower portion of the molecule.
# [2] = test system: orthotopic MP2 CMV tumors; assay: in vivo bioluminescent imaging, orthotopic MP2 CMV tumors; parameters: species or system mouse; conditions: single dose of 2 mg/kg by tail vein, up to 6 hours post injection
# Method: (§1) Orthotopic Panreatic Xenografts. MP2 PD AC cells (1×10^6) or the indicated derivates were implanted in immune-deficient athymic nu/nu mice following fACLIC approved protocols. Briefly, an incision was placed in the right flank of anesthetized animals the spleen and pancreas liberated. Cells were mixed 1:1 with Matfigel and implanted in the tail of the pancreas in 10 μl. Incision was sutured in 2 layers, animals given long lasting analgesics, and allowed to recover from anesthesia. Mice were returned to housing for post-op care and monitored daily for 4 days. Animals were checked weekly after that by palpation to determine tumor growth.
# (§2) In vivo bioluminescent imaging. All animal experiments were performed according to protocols approved by the OSU institutional IAGLIC review (protocol #201200000124-R2), with daily veterinarian observation. For heterotopic flank tumor experiments, 1×10^6 HeLa pODD or 5×10^6 MP2 cells were injected subcutaneously (s.c.) into the flanks of 6-wk-old female (HeLa pODD) or male (N1P2 pODD or MP2 CMV) immunocompromised athymic nu/nu mice. […] Mice were anesthetized with 1.5% isoflurane and bioluminescence was measured every two minutes for the period of 25 minutes to identify peak response of each mouse to D-luciferin. Bioluminescent data were analyzed using living Image software (Perkin Elmer Inc) and calculated as photon flux/sec. […]
# MC38 colorectal tumor = assay: MC38 colorectal tumors in C57Bl6 mice, sensitization to anti PD-1; type: in vivo, mouse
# Method: MC38 tumors grown in C57B16 mice were treated as indicated with irrelevant antibody, anti PD-1, or anti PD-1 after PPV or SMV32 n=5-7, P=<0.05* for PPV and <0.01** for SMV32.
# Papaverine and SMV32 enhance PD-1 checkpoint blockade immunotherapy for cancer treatment. Because of the literature describing the immunomodulatory effects of hypoxia^(24-27), we hypothesized that reducing hypoxia may also enhance tumor lymphocyte infiltration and function and improve immune-mediated tumor cell killing. As those of skill in the art recognize, there is a large body of literature and research on increase the supply side of the hypoxia equation, but it has been heretofore an unexpected approach to decrease the tri demand side of the hypoxia equation. We tested tumors grown from the relatively immune-sensitive syngeneic MC38 colorectal tumor line in immuno-competent C5713116 mice. […] In a second cohort, we implanted 1×10^6 cells/mouse and after 5 days, when tumors were 50-100 mm^3, they were randomized into four groups. Therapy was started with either control rat IgG antibody, or a suboptimal dose of anti PD-1(CD279) blocking monoclonal antibody (BioXCell, clone 29F.1A12, 100 μg ip every 3 days).
# HeLa pODD flank tumors = assay: in vivo bioluminescent imaging, HeLa pODD flank tumors; parameters: species or system mouse; conditions: 4 mg/kg by tail vein
# Method: In vivo bioluminescent imaging. All animal experiments were performed according to protocols approved by the OSU institutional IAGLIC review (protocol #201200000124-R2), with daily veterinarian observation. For heterotopic flank tumor experiments, 1×10^6 HeLa pODD or 5×10^6 MP2 cells were injected subcutaneously (s.c.) into the flanks of 6-wk-old female (HeLa pODD) or male (N1P2 pODD or MP2 CMV) immunocompromised athymic nu/nu mice. Replicate experiments with groups of 4-6 mice were used for statistical reproducibility. Caliper measurements of opposing diameters were used to calculate the tumor volumes using the modified ellipsoidal formula: tumor volume=(length×width^2)[23]. Upon reaching 100 mm^3, the animals were given 100 mg/kg D-luciferin intraperitoneally and bioluminescence images were captured using IVIS In Vivo Imaging System Lumina II (Perkin Elmer Inc). Mice were anesthetized with 1.5% isoflurane and bioluminescence was measured every two minutes for the period of 25 minutes to identify peak response of each mouse to D-luciferin. Bioluminescent data were analyzed using living Image software (Perkin Elmer Inc) and calculated as photon flux/sec. Obtained individual photon flux peak values were then normalized to baseline for each mouse and averaged per group. […]
# CMT167 flank lung tumors = CMT167 flank lung tumors in C57Bl6 mice, sensitization to anti PD-1; type: in vivo, mouse; conditions: given 16 hours prior to sub-optimal anti-PD-1, days 10 and 13
# Method: C57B16 mice bearing CMT167 flank lung tumors were treated as indicated on days 10 and 13 and relative volume followed.
# There are reports in the literature indicating ways that hypoxia affects immune functions of lymphocytes, MDSCs and T regulatory cells infiltrating in the tumor.
# LLC tumor = assay: Lewis Lung Carcinoma (LLC) PD-1 blockade resistant tumor model; type: in vivo, mouse; conditions: treated on days 5, 8
# Method: LLC tumor bearing mice were treated as indicated on days 5, 8 and relative growth followed. P=NS for PD-1 vs PPV->PD1, 0.04 for PD-i vs SMV32->PD-1.
# Finally, as a rigorous test of anti-hypoxia agents as immuno-sensitizers of model tumors grown in mice, we next tested the PD-1 blockade resistant tumor model Lewis Lung Carcinoma (LLC). These tumors have been reported to be refractory to even full dose (200 ug/mouse) PD-1 blocking antibody.
# MP2 pODD flank tumors = assay: in vivo bioluminescent imaging, heterotopic MP2 pODD flank tumors; parameters: species or system mouse
# Method: In vivo bioluminescent imaging. […] For heterotopic flank tumor experiments, 1×10^6 HeLa pODD or 5×10^6 MP2 cells were injected subcutaneously (s.c.) into the flanks of 6-wk-old female (HeLa pODD) or male (N1P2 pODD or MP2 CMV) immunocompromised athymic nu/nu mice. Replicate experiments with groups of 4-6 mice were used for statistical reproducibility. Caliper measurements of opposing diameters were used to calculate the tumor volumes using the modified ellipsoidal formula: tumor volume=(length×width^2)[23]. Upon reaching 100 mm^3, the animals were given 100 mg/kg D-luciferin intraperitoneally and bioluminescence images were captured using IVIS In Vivo Imaging System Lumina II (Perkin Elmer Inc). […] Bioluminescent data were analyzed using living Image software (Perkin Elmer Inc) and calculated as photon flux/sec. Obtained individual photon flux peak values were then normalized to baseline for each mouse and averaged per group. Gas inhalation experiments were performed by switching medical air and carbogen gas sources for the IVIS anesthesia vaporizer. Initial baselines were established in medical air under anesthesia, then the mice were subjected to 30 minutes of either medical air or carbogen rebreathing in an air-tight chamber while awake. After 30 minutes, photon flux was established in respective gas sources as a carrier for isoflurane anesthesia.
# [3] = test system: orthotopic MP2 pODD tumors; assay: in vivo bioluminescent imaging, orthotopic MP2 pODD tumors; parameters: species or system mouse; conditions: tail vein injection
# Method: as §1, §2
# MP2 CMV cells = assay: in vitro luciferase assay, MP2 CMV control cells; type: cell-based, human; conditions: 1 mM DMOG, constitutive CMV reporter
# Method: (§3) PCR-amplified cassette was then digested with Asci and Pmel restriction enzymes and ligated into pLenti-C-Myc-DDK-IRES-Puro. Correct orientation and sequence was confirmed by Sanger DNA sequencing. HeLa pODD and MIP2 pODD transfectants were selected with 2 μg/ml Puromycin for two weeks. Stable MP2 CMV Cells were generated by lentiviral transduction of MP2 cells with pLenti-CMV-Puro-Luc lentiviral vector (Addgene#17477) with 2 Puromycin selection for two weeks. Cells were grown in Dulbecco's Modified Eagle's Medium (DMEM) containing 25 mM D-glucose, 4 mM glutamine and 44 mM sodium bicarbonate in 5% CO2, if not stated otherwise. The cells were exposed to hypoxia (1% O2) in H35 Hypoxic Workstation (Hypoxygen) with 5% CO2 at 37° C. In some experiments, we used a hypoxia mimetic dimethyloxalyglycine (DMOG) as described. Cell counts and cellular proliferation were established using hemocytometer to determine the cell number and trypan blue exclusion assay to establish the fraction of viable/dead cells. All human cell lines have been authenticated using STR profiling within the past 3 years. All experiments were performed with mycoplasma-free cells.
# In vitro luciferase Assay. […] Bioluminescence was measured on a Synergy H1 Hybrid Plate Reader (Biotek) after a 10-minute incubation period (10 slsample, Gain=150) in triplicates.
# [4] = test system: pODD-Luc reporter in MP2 pODD cells; assay: in vitro luciferase assay, MP2 pODD cells; type: cell-based, human; conditions: 16 hours, 1 mM
# Method: as §3
# In vitro luciferase Assay. Proteins were extracted using Luciferase Assay Lysis Buffer (125 mM Tris-HCl, pH 7.5, 11.0 mM DTT, 10 mM EGTA, 50% Glycerol, 5% Triton X-100) and 200 μl/sample were transferred to 96-well plate and D-luciferin was added to the final concentration of 150 μg/ml immediately before the assay. Bioluminescence was measured on a Synergy H1 Hybrid Plate Reader (Biotek) after a 10-minute incubation period (10 slsample, Gain=150) in triplicates.
# T1 sequence (Q9Y233 whole entry): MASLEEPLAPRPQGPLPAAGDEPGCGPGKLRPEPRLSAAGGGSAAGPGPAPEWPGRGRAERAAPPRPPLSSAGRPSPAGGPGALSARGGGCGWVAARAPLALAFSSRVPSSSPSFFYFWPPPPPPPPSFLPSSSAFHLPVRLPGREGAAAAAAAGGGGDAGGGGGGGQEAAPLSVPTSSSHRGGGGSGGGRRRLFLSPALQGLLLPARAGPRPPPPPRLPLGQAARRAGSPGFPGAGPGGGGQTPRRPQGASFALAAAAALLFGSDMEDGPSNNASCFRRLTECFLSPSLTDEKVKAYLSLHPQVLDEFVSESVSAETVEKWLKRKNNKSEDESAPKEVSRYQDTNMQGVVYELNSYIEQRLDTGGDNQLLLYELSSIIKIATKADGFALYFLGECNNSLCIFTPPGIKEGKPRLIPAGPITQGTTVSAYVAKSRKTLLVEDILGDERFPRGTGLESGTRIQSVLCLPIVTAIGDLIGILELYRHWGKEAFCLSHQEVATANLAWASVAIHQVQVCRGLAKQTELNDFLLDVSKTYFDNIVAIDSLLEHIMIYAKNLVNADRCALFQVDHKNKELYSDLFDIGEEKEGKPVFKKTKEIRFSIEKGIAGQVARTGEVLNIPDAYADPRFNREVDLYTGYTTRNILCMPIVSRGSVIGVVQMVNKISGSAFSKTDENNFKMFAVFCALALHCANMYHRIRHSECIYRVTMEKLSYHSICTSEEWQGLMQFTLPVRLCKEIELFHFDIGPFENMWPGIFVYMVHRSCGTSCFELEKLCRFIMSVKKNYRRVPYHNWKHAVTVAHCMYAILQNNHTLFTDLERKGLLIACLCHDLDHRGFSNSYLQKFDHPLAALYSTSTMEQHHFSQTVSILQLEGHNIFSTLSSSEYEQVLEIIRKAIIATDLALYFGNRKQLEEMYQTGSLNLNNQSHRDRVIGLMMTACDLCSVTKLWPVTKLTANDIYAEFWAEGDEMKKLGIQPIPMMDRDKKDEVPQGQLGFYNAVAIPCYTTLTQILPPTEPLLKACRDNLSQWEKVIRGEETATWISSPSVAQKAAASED
Structure (SMILES),fraction of tumors responding well (T2* increase) ([1]; 1 mg/kg IV),fraction of tumors responding well (T2* increase) ([1]; 2 mg/kg IV),tumor oxygenation ([1]; 1 or 2 mg/kg IV),PDE inhibition IC25 (PDE10A) [nM],CMV luciferase activity vs vehicle [2],effect on PD-1 blockade (MC38 colorectal tumor; 2 mg/kg iv 16 hours prior to suboptimal anti PD-1 (100 μg ip every 3 days)),"tumor growth, compound alone (MC38 colorectal tumor; repeated dosing, no antibody)","photon flux reduction, dose comparison (HeLa pODD flank tumors)",tumor growth delay (CMT167 flank lung tumors),"therapeutic effect, compound first and PD-1 antibody second (LLC tumor)",photon flux (MP2 pODD flank tumors; intraperitoneal delivery of 2 mg/kg),reduction in photon flux compared to vehicle [3] [%],luciferase signal response (MP2 CMV cells),increase of pODD-Luc signal [4] [×],"photon flux (MP2 pODD flank tumors; 4 mg intraperitoneally, 4 hours post injection)"
"COc1ccc(Cc2nccc3cc(OC)c(OC)cc23)cc1OC [PPV, papaverine]",1/4,3/5,increases oxygenation,650,no difference,enhance the effectiveness of suboptimal PD-1 blockade,no effect on tumor growth,greater photon flux reduction than the 2 mg/kg dose,significant tumor growth delay,no therapeutic benefit,did not reduce the photon flux,45,–,–,–
"COC(=O)CNC(=O)C(=O)OC [DMOG, dimethyloxalyglycine]",–,–,–,–,–,–,–,–,–,–,–,–,unresponsive,2.2,significant increase of photon flux
